Data from patent US8222022B2, “Tri-functionalized cryptophane biosensors” (The Trustees of the University of Pennsylvania, priority 2008, dated 2012).
Blank lines part the entries; values can stand above or below the compound they belong to.

Columns and labels:
[1] = comparison value; cited from earlier work
[2] = Xenon binding by isothermal titration calorimetry (ITC) in phosphate buffer
Description: ITC samples were prepared and experiments were performed using a MicroCal VP-ITC titration microcalorimeter (Northampton, Mass.) at 293 K. Standard protocols and data analysis were used. Control enthalpograms are given in the appended figures.
In order to confirm the association constants obtained by fluorescence quenching, ITC experiments were performed.
(§1) Xenon binding was also determined by isothermal titration calorimetry (ITC), which directly measured the heat released during Xe association. ITC measurements were undertaken in 20 mM, pH 7.5 phosphate buffer at 293 K and 310 K as well as in human plasma at 310 K (FIG. 3).
The association constants obtained from fits of ITC data at 293 K (KA=1.73×10^4 M^−1, Table 5) and fluorescence quenching were in excellent agreement. […] This was likely a consequence of the 20 water molecules that make up the first solvation sphere of the Xe atom in aqueous solution.

[3] = Xenon binding by fluorescence quenching; conditions: 293 K, phosphate buffer
Description: Steady-state fluorescence spectra were acquired using a Varian Cary Eclipse fluorimeter equipped with a Peltier multicell holder for temperature control. Concentration measurements necessary for fluorescence work were obtained using an Agilent 8453 UV-Vis spectrophotometer. Xenon binding determination by fluorescence quenching was performed. The quantum yield of tri-acid cryptophane was measured relative to tryptophan.
The xenon affinity of tricarboxylate cryptophane was studied by fluorescence quenching (FIG. 2) and isothermal titration calorimetry (ITC) (FIG. 3). […] As in a previous fluorescence quenching study with TTPC, temperature-equilibrated solutions of xenon-saturated water were added sequentially by syringe to a septum-sealed fluorescence cuvette and fluorescence intensity measurements were taken. […]
A saturated xenon solution at 310 K ([Xe]=3.3 mM) was titrated into the septum-sealed cuvette by gas-tight syringe. […] In all cases, fluorescence spectra were collected after thermal equilibration at 293 K (FIG. 2)
The fluorescence maxima were fitted to a single-site binding model using the following relationship.
At xenon saturation, [Xe]=5.05 mM at 293 K and 1 atm, the cryptophane fluorescence was half quenched (Fo/F=2). No cryptophane impurities or concentration dependent phenomena were observed that might also contribute to partial fluorescence quenching. […]

[4] = Aqueous solubility (visual observation of precipitation, dissolution in aqueous base); conditions: visual observation of precipitation during titration
From the text: Steric congestion near the carboxylic acid group decreases acidity by preventing efficient solvation of the carboxylate anion. […] Each acid group attached to TAAC can be approximated as being an acetic acid attached to a ˜1 nm diameter nonpolar sphere. Water molecules surrounding the nonpolar cryptophane surface must be ordered, a consequence of the hydrophobic effect. Carboxylate solvation must directly compete with this ordered solvation sphere necessary for the cryptophane core.

[5] = Xenon binding by ITC in human plasma; conditions: Plasma 310 K
Description: as §1
From Table 5 and the known thermodynamics of xenon partitioning into water, an upper limit of ΔH=−7.5 kcal/mol was calculated for the enthalpy of xenon binding to I. Thus, the measured ΔH of −6.04 kcal/mol, although larger than in buffer, appeared reasonable.

human isozyme II (CAII) = human isozyme II (CAII) (Homo sapiens, UniProt P00918); experiment: Binding to carbonic anhydrase II in solution (ITC); conditions: read-out: KD against CAII
From the text: The ^129Xe isotope has a spin-½ nucleus, a >200 ppm chemical shift window in water, and a natural isotopic abundance of 26% (commercially available up to 86%), which makes it an appealing biomolecular probe for MRI. Moreover, ^129Xe can be laser polarized to enhance MRI signals ˜10,000-fold.

[6] = 293 K, 20 mM pH 7.5 phosphate buffer

Compound: COc1ccccc1OCC(=O)O [2-(2-methoxyphenoxy)acetic acid]
pKa of analogous acid (comparison) [1]: 3.23

additional stabilization of the Xe@TAAC complex relative to Xe@TTPC ([2]; 293 K): -0.37 kcal/mol | xenon association constant KA by ITC [2, 6]: 33,000±3000 M^−1 | ΔG of xenon binding [2, 6]: -6.09 kcal/mol | ΔH of xenon binding [2, 6]: -4.3 ± 0.7 kcal/mol | ΔS of xenon binding [2, 6]: 5.9 cal*mol^−1*K^−1 | xenon association constant ([2]; 293 K, by ITC and fluorescence quenching assay): 33,000 M^−1 | xenon association constant ([2]; 310 K, extrapolated from the 293 K value): ~50,000 M^−1 | KA ([2]; ITC at 293 K (Table 2)): 3.33 ± 0.28 M^−1 × 10^4 | TΔS ([2]; ITC at 293 K (Table 2)): 1.72 kcal/mol | ΔG ([2]; ITC at 293 K (Table 2)): -6.06 kcal/mol | ΔH ([2]; ITC at 293 K (Table 2)): -4.34 ± 0.66 kcal/mol | association constant (Xe) by fluorescence quenching [3]: 33,000±2000 M^−1 | pKa (Acid-base titration): 4.1
Compound: COc1cc2c3cc1OCCOc1cc4c(cc1OCC(=O)O)Cc1cc5c(OCC(=O)O)cc1Cc1cc(c(OCC(=O)O)cc1C4)OCCOc1cc(c(cc1OC)C3)Cc1cc(OC)c(cc1C2)OCCO5 [TAAC, Tri-Acetic Acid Cryptophane]
deprotonations required for aqueous solubility [4]: required all three acids to be deprotonated for aqueous solubility

KA ([2]; Buffer 293 K): 1.73 ± 0.17 M^−1 × 10^4 | TΔS ([2]; Buffer 293 K): 2.55 kcal/mol | ΔG ([2]; Buffer 293 K): -5.69 kcal/mol | ΔH ([2]; Buffer 293 K): -3.14 ± 0.20 kcal/mol | KA ([2]; Buffer 310 K): 3.01 ± 0.26 M^−1 × 10^4 | TΔS ([2]; Buffer 310 K): 2.80 kcal/mol | ΔG ([2]; Buffer 310 K): -6.36 kcal/mol | ΔH ([2]; Buffer 310 K): -3.56 ± 0.13 kcal/mol | KA ([2]; ITC at 293 K (Table 2)): 1.70 M^−1 × 10^4 | TΔS ([2]; ITC at 293 K (Table 2)): 2.55 kcal/mol | ΔG ([2]; ITC at 293 K (Table 2)): -5.69 kcal/mol | ΔH ([2]; ITC at 293 K (Table 2)): -3.14 kcal/mol | upper limit of ΔH for the enthalpy of xenon binding ([2]; calculated from Table 5 and known thermodynamics of xenon partitioning into water): ≤ -7.5 kcal/mol | ΔS of xenon binding ([2]; phosphate buffer, 293 and 310 K): 9.0 cal/mol K | association constant (Xe) by fluorescence quenching [3]: 17,000±1800 M^−1 | KA [5]: 2.19 ± 0.22 M^−1 × 10^4 | TΔS [5]: 0.12 kcal/mol | TΔS (contribution of entropy) [5]: 0.12 | measured ΔH of xenon binding [5]: -6.04 kcal/mol | ΔG [5]: -6.16 kcal/mol | ΔH [5]: -6.04 ± 0.33 kcal/mol | Kd (human isozyme II (CAII)): 60 ± 20 nM
Compound: tri-triazole propionate cryptophane [TTPC]
